Results published in article PMC9822014, “Antibacterial Thiopeptide GE2270-Congeners from Nonomuraea jiangxiensis” (Molecules, 2022).
In brackets after ≈: the same amount, converted by molar mass. Entries after “also recorded” stand apart in the source; their conditions may differ. Like-named read-outs stand apart in the source and are kept apart here.

What was measured:
[1] = test system: Staphylococcus aureus Rosenbach (ATCC 25923); assay: Antibacterial microbroth dilution MIC/MBC against S. aureus; assay type: cell-based; conditions: S. aureus Rosenbach ATCC 25923; for MIC / MIC90 / MBC90 (minimal bactericidal concentration) / MBC: Staphylococcus aureus; for MIC: ATCC25923, 24 h; for MIC90 / MBC90 (minimal bactericidal concentration) / MBC: ATCC25923; for MBC90 (minimal bactericidal concentration): read-out: MBC (IC90) / minimal bactericidal concentration (MBC90); for MBC: treated culture transferred to new media, read-out: MBC90 [(μM) mean ± SD]; for Relative antibacterial activity compared with another compound: 1 versus 2, 9 versus 8
Method: The minimum inhibition concentration (MIC) and the minimum bactericidal/fungicidal concentration (MBC/MFC) were carried out using the microbroth dilution method according to the Clinical Laboratory Standards Institute (CLSI) guidelines, with some modifications. […] The tested compounds were then incubated together with bacterial cells at 37 °C for 24 h and with fungal spores at 25 °C for 72 h, respectively. The OD600 measurements were subsequentially carried out to evaluate the inhibitory effect of the compounds. To further determine the bactericidal and fungicidal effects of the compounds, 5 µL of the treated culture was transferred onto new media microplates. The plates were incubated under the same condition, followed by the OD600 measurement. […] The cells were then treated with the compounds for 72 h at 37 °C in the presence of 5% CO2. Any Cytotoxic effect was detected with PrestoBlue™ cell viability reagent (ThermoFisher Scientific, Waltham, MA, USA). The cells were read with a fluorescence reading at an excitation of 560 nm and an emission 590 nm. Standard inhibitors, gentamicin (Gibco, Waltham, MA, USA), amphotericin (Sigma-Aldrich, St. Louis, MO, USA) and puromycin (Sigma-Aldrich, St. Louis, MO, USA) were used as the assay controls for the antibacterial, antifungal and cytotoxicity assay. […] GraphPad Prism 8 software (GraphPad, San Diego, CA, USA) was used for the analysis of the bioactivity to determine the respective IC90 and IC50 values.

[2] = test system: Clostridium difficile infections; design: method as in PMID 25534727, PMID 22315981; conditions: phase 2 clinical trial, humans; cited from earlier work
[3] = Figure 5, read-out: MIC (IC90) / minimal inhibitory concentration (MIC90)
[4] = 37 °C, 24 h, OD600, mean ± SD, triplicates, read-out: MIC90 [(μM) mean ± SD]

CNC(=O)CC1NC(=O)c2csc(n2)-c2ccc(-c3nc(C4=NC(C(=O)N5CCCC5C(=O)O)CO4)cs3)nc2-c2csc(n2)-c2csc(n2)C(C(O)c2ccccc2)NC(=O)CNC(=O)c2csc(n2)C(C(C)C)NC(=O)c2csc1n2 (centres unmarked) [Compound 3, GE2270F3]
Antibacterial activity against S. aureus (in words) [1]: inactive; also recorded: no bioactivity | MIC [1, 3]: 2 to 11 µM (≈ 2.47 to 13.6 µg/mL) | MIC90 [1, 4]: > 70 µM | MBC90 (minimal bactericidal concentration) ([1]; Figure 5): > 70 µM | MIC90 [1, 3]: > 70 µM | MBC ([1]; OD600, mean ± SD, triplicates): > 70 µM

CNC(=O)C[C@@H]1NC(=O)c2csc(n2)-c2ccc(-c3nc(C(=O)N[C@@H](CO)C(=O)N4CCC[C@H]4C(N)=O)cs3)nc2-c2csc(n2)-c2csc(n2)[C@H]([C@@H](O)c2ccccc2)NC(=O)CNC(=O)c2nc(sc2COC)[C@H](C(C)C)NC(=O)c2nc1sc2C [Compound 6]
Antibacterial activity against S. aureus (in words) [1]: displayed activities; also recorded: demonstrated antibacterial activity | MIC [1, 3]: 2 to 11 µM (≈ 2.62 to 14.4 µg/mL) | MIC90 [1, 4]: 7.07 ± 0.55 µM (≈ 9.25 µg/mL) | MIC90 [1, 3]: 7.07 µM (≈ 9.25 µg/mL)

CNC(=O)C[C@@H]1NC(=O)c2csc(n2)-c2ccc(-c3nc(C(=O)OC)cs3)nc2-c2csc(n2)-c2csc(n2)[C@H]([C@@H](O)c2ccccc2)NC(=O)CNC(=O)c2csc(n2)[C@H](C(C)C)NC(=O)c2nc1sc2C [Compound 7]
Antibacterial activity against S. aureus (in words) [1]: displayed activities | MIC90 [1, 4]: 4.71 ± 0.37 µM (≈ 5.16 µg/mL) | MBC90 (minimal bactericidal concentration) ([1]; Figure 5): 12.4 µM (≈ 13.6 µg/mL) | MIC90 [1, 3]: 4.71 µM (≈ 5.16 µg/mL) | MBC ([1]; OD600, mean ± SD, triplicates): 12.4 ± 1.06 µM (≈ 13.6 µg/mL)

CNC(=O)C[C@@H]1NC(=O)c2csc(n2)-c2ccc(-c3nc(C(=O)N[C@@H](CO)C(=O)N4CCC[C@H]4C(N)=O)cs3)nc2-c2csc(n2)-c2csc(n2)[C@H]([C@@H](O)c2ccccc2)NC(=O)CNC(=O)c2csc(n2)[C@H](C(C)C)NC(=O)c2nc1sc2C [Compound 5]
Antibacterial activity against S. aureus (in words) [1]: inactive | MIC [1, 3]: 2 to 11 µM (≈ 2.53 to 13.9 µg/mL) | MIC90 [1, 4]: > 70 µM | MBC90 (minimal bactericidal concentration) ([1]; Figure 5): > 70 µM | MIC90 [1, 3]: > 70 µM | MBC ([1]; OD600, mean ± SD, triplicates): > 70 µM

CNC(=O)CC1NC(=O)c2csc(n2)-c2ccc(-c3nc(C4=NC(C(=O)N5CCCC5C(=O)O)CO4)cs3)nc2-c2csc(n2)-c2csc(n2)C(C(O)c2ccccc2)NC(=O)CNC(=O)c2nc(sc2COC)C(C(C)C)NC(=O)c2csc1n2 (centres unmarked) [Compound 4, GE2270F4]
Antibacterial activity against S. aureus (in words) [1]: inactive; also recorded: no bioactivity | MIC [1, 3]: 2 to 11 µM (≈ 2.56 to 14.1 µg/mL) | MIC90 [1, 4]: > 70 µM | MBC90 (minimal bactericidal concentration) ([1]; Figure 5): > 70 µM | MIC90 [1, 3]: > 70 µM | MBC ([1]; OD600, mean ± SD, triplicates): > 70 µM

CNC(C)C1CCC(N)C(OC2C(N)CC(N)C(OC3OCC(C)(O)C(NC)C3O)C2O)O1 (centres unmarked) [Gentamicin, gentamicin, reference compound]
MIC90 [1, 4]: 0.04 ± 0.01 µM (≈ 0.0191 µg/mL) | MBC90 (minimal bactericidal concentration) ([1]; Figure 5): 0.1 µM (≈ 0.0478 µg/mL) | MIC90 [1, 3]: 0.04 µM (≈ 0.0191 µg/mL) | MBC ([1]; OD600, mean ± SD, triplicates): 0.1 ± 0.01 µM (≈ 0.0478 µg/mL)

CNC(=O)C[C@@H]1NC(=O)c2csc(n2)-c2ccc(-c3nc(N(CCCCC(=O)O)C(=O)O[C@H]4CC[C@H](C(=O)O)CC4)cs3)nc2-c2csc(n2)-c2csc(n2)[C@H]([C@@H](O)c2ccccc2)NC(=O)CNC(=O)c2nc(sc2COC)[C@H](C(C)C)NC(=O)c2nc1sc2C [LFF571]
Recurrence rates versus vancomycin [2]: higher recurrence rates than conventional antibiotics treatment with vancomycin

CNC(=O)CC1NC(=O)c2csc(n2)-c2ccc(-c3nc(C4=NC(C(=O)N5CCCC5C(=O)O)CO4)cs3)nc2-c2csc(n2)-c2csc(n2)C(C(O)c2ccccc2)NC(=O)CNC(=O)c2csc(n2)C(C(C)C)NC(=O)c2nc1sc2C (centres unmarked) [Compound 2, GE2270F2]
Antibacterial activity against S. aureus (in words) [1]: displayed activities | MIC90 [1, 4]: 6.94 ± 0.83 µM (≈ 8.66 µg/mL) | MBC90 (minimal bactericidal concentration) ([1]; Figure 5): 67.9 µM (≈ 84.7 µg/mL) | MIC90 [1, 3]: 6.94 µM (≈ 8.66 µg/mL) | MBC ([1]; OD600, mean ± SD, triplicates): 67.9 ± 1.55 µM (≈ 84.7 µg/mL)

CNC(=O)C[C@@H]1NC(=O)c2csc(n2)-c2ccc(-c3nc(C(=O)O)cs3)nc2-c2csc(n2)-c2csc(n2)[C@H]([C@@H](O)c2ccccc2)NC(=O)CNC(=O)c2nc(sc2COC)[C@H](C(C)C)NC(=O)c2nc1sc2C [Compound 9]
Antibacterial activity against S. aureus (in words) [1]: displayed activities | Relative antibacterial activity compared with another compound [1]: at least a three-fold reduction | MIC90 [1, 4]: 10.3 ± 0.75 µM (≈ 11.6 µg/mL) | MBC90 (minimal bactericidal concentration) ([1]; Figure 5): 52 µM (≈ 58.5 µg/mL) | MIC90 [1, 3]: 10.3 µM (≈ 11.6 µg/mL) | MBC ([1]; OD600, mean ± SD, triplicates): 52 ± 1.41 µM (≈ 58.5 µg/mL)

CNC(=O)C[C@@H]1NC(=O)c2csc(n2)-c2ccc(-c3nc(C(=O)OC)cs3)nc2-c2csc(n2)-c2csc(n2)[C@H]([C@@H](O)c2ccccc2)NC(=O)CNC(=O)c2nc(sc2COC)[C@H](C(C)C)NC(=O)c2nc1sc2C [Compound 8]
Antibacterial activity against S. aureus (in words) [1]: displayed activities | MIC [1, 3]: 3.17 µM (≈ 3.61 µg/mL) | MIC90 [1, 4]: 3.17 ± 0.28 µM (≈ 3.61 µg/mL) | MBC90 (minimal bactericidal concentration) ([1]; Figure 5): 16.2 µM (≈ 18.5 µg/mL) | MIC90 [1, 3]: 3.17 µM (≈ 3.61 µg/mL) | MBC ([1]; OD600, mean ± SD, triplicates): 16.2 ± 1.48 µM (≈ 18.5 µg/mL)

CNC(=O)CC1NC(=O)c2csc(n2)-c2ccc(-c3nc(C4=NC(C(=O)N5CCCC5C(=O)O)CO4)cs3)nc2-c2csc(n2)-c2csc(n2)C(C(O)c2ccccc2)NC(=O)CNC(=O)c2nc(sc2COC)C(C(C)C)NC(=O)c2nc1sc2C (centres unmarked) [Compound 1, GE2270F1]
Antibacterial activity against S. aureus (in words) [1]: displayed activities | Relative antibacterial activity compared with another compound [1]: three-fold more active | MIC [1, 3]: 2.63 µM (≈ 3.4 µg/mL) | MIC90 [1, 4]: 2.63 ± 0.12 µM (≈ 3.4 µg/mL) | MBC90 (minimal bactericidal concentration) ([1]; Figure 5): 18.5 µM (≈ 23.9 µg/mL) | MIC90 [1, 3]: 2.63 µM (≈ 3.4 µg/mL) | MBC ([1]; OD600, mean ± SD, triplicates): 18.5 ± 1.34 µM (≈ 23.9 µg/mL)
